Usually GI50 stands for the concentration giving 50% growth inhibition. A low value points to more potent growth inhibition.

This is an account of results in patent publication US20110118298A1, “COMPOSITIONS, KITS, AND METHODS FOR IDENTIFICATION, ASSESSMENT, PREVENTION, AND THERAPY OF CANCER” (INFINITY PHARMACEUTICALS, INC., priority 2009, published 2011).

Structures can show the parent of a compound that is named as a salt.

Assay [1] deals with Colo 320. Briefly: CRC cell line growth inhibition in vitro. The format is cell-based. Particulars: KRAS wt, BRAF wt.
From the text: (§3) The GI-50 concentration is provided as a function of mutational status.
In assay [2] the test system is SW-620. Briefly: CRC cell line growth inhibition in vitro. In kind it is cell-based. The conditions noted are these: KRAS G12V, BRAF wt.
From the text: as §3
Assay [3] relates to NCI-H716. Briefly: CRC cell line growth inhibition in vitro. In kind it is cell-based. Particulars: KRAS wt, BRAF wt.
From the text: as §3
Assay [4] has as its system HCT-116. Briefly: CRC cell line growth inhibition in vitro. The format is cell-based. Particulars: KRAS G13D, BRAF wt.
Assay [5] has as its system SW-48. Briefly: CRC cell line growth inhibition in vitro. The format is cell-based. The conditions noted are these: BRAF wt, EGFR G719S.
From the text: as §3
The test system of assay [6] is HT-29. Briefly: CRC cell line growth inhibition in vitro. In kind it is cell-based. The conditions noted are these: KRAS wt, BRAF V600E.
For assay [7], the system named is QGP-1. Briefly: Neuroendocrine cell line growth inhibition, Cell Titer Glow, 72 hrs. In kind it is cell-based. Particulars: for GI50: QGP-1, 72 hrs. The method, then:
(§1) All cell lines were tested for mycoplasma and maintained at 37° C. in 5% CO2 atmosphere.
(§2) The data were normalized with respect to DMSO vehicle control to generate growth inhibition GI50 values.
On the technique in general: In ATP-based viability assays light output follows the ATP content of the culture.

Assay [8] deals with BON-1. The assay is described as above. In kind it is cell-based. The conditions noted are these: for GI50: BON-1, 72 hrs. The method, then:
as §1, §2

For assay [9], the system named is H-720. The assay is described as above. The conditions noted are these: for GI50: H-720, 72 hrs. The format is cell-based. As to the method: as §1, §2
Assay [10] deals with HC-45. The description is as above. In kind it is cell-based. Particulars: for GI50: HC-45, 72 hrs. As to the method:
as §1, §2

For assay [11], the system named is IR and IGF1R receptors. Briefly: Human Phospho-Receptor Tyrosine Kinase array, BON-1 and H-720 lysates. The format is cell-based. Particulars: 1 μM overnight, BON-1 and H-720 cells. The source says:
BON-1 and H-720 cell lysates were hybridized to R&D Systems' Human Phospho-Receptor Tyrosine Kinase (RTK) Arrays (Catalog #ARY001) according to the manufacturer's instructions. In the array, each RTK is spotted in duplicate. Hybridization signals at the corners serve as controls.

Assay [12] relates to Colo 741. Briefly: CRC cell line growth inhibition in vitro. The format is cell-based. The conditions noted are these: KRAS wt, BRAF V600E.
In assay [13] the test system is SW-480. Briefly: CRC cell line growth inhibition in vitro. Particulars: BRAF wt. In kind it is cell-based.
The subject of assay [14] is Colo 201. Briefly: CRC cell line growth inhibition in vitro. The format is cell-based. The conditions noted are these: KRAS wt, BRAF V600E.
Assay [15] deals with Colo 205. Briefly: CRC cell line growth inhibition in vitro. In kind it is cell-based. The conditions noted are these: KRAS wt, BRAF V600E.
For assay [16], the system named is SNU-C1. Briefly: CRC cell line growth inhibition in vitro. In kind it is cell-based. Particulars: KRAS wt, BRAF wt.
Assay [17] has as its system HT-55. Briefly: CRC cell line growth inhibition in vitro. The format is cell-based. The conditions noted are these: BRAF N581Y.
From the text: as §3
Assay [18] relates to EML4-ALK. Briefly: Time to client protein degradation by immunoblot, H3122 cells. The format is cell-based, human. Particulars: 1 uM IPI-504. As to the method: FIG. 7B is panel of immunoblot images showing the levels of ALK, phospho-ALK and cleaved-PARP in H3122 cells, HER2 in BT474 cells, and EGFR in H1650 cells at various time points after IPI-504 (1 uM) treatment. Proteins levels were monitored by immunoblotting.
Rearrangements at the ALK locus have been reported in about 5% of NSCLC patients, forming an oncogenic fusion of the N-terminus of EML4 with the C-terminal kinase domain of ALK (Soda, M. et al. (2007) Nature 448: 561-6). To determine whether the EML4-ALK fusion protein is a client protein of Hsp90, we incubated the EML4-ALK-expressing NSCLC cell line H3122 with increasing concentrations of IPI-504 and measured the abundance of total and phosphorylated ALK protein by ELISA (FIG. 7a). In this experiment, virtually all ALK protein is degraded at concentrations above 50 nM IPI-504. The degradation IC50 measured (4 nM) makes this the most sensitive Hsp90 client protein we have encountered. […] To further confirm that EML4-ALK is indeed a client of Hsp90, we performed immunoprecipitations with an antibody directed against Hsp90a, and detected a protein band at the predicted molecular weight ([…]) with an ALK antibody in Hsp90 immunoprecipitates from H3122 cells but not control cells (FIG. 7c, lane 1 and 3). […]
(In general: A western blot detects proteins with antibodies after separation by electrophoresis.)

Regarding `CO[C@H]1/C=C\C=C(/C)C(=O)NC2=CC(=O)C(N)=C(C[C@@H](C)C[C@H](OC)[C@H](O)[C@@H](C)/C=C(\C)[C@@H]1OC(N)=O)C2=O` [IPI-493, 17-AG], the GI50 is above 1600 nM in assay [1]; 13 nM in [2]; 35 nM in [3]; 34 nM in [4]; 7 nM in [5] (KRAS wt); 2 nM in [6]. The GI50 in [7] is 10 nM; in [8], 19 nM; in [9], 189 nM; in assay [10], 88 nM; in assay [12] it was above 10000 nM; in [13] (KRAS G12V), 30 nM. For the same molecule, the GI50 was above 10000 nM in [14], 7 nM in assay [15], 25 nM in [16] and 28 nM in [17] (KRAS wt). Also, the “constitutive phosphorylation of IR and IGF1R receptors” value in assay [11] was “inhibited this constitutive phosphorylation”.
For `C=CCNc1c(O)cc2c(O)c1C[C@@H](C)C[C@H](OC)[C@H](O)[C@@H](C)/C=C(\C)[C@H](OC(N)=O)[C@@H](OC)/C=C\C=C(/C)C(=O)N2` [IPI-504, retaspimycin hydrochloride], the GI50 in [1] (Homo sapiens) is above 1600 nM; in [2] (Homo sapiens) it was 51 nM; in assay [3] (Homo sapiens), 66 nM; in [4] (Homo sapiens), 88 nM; in [5] (Homo sapiens, SW48, KRAS wt), 13 nM; in assay [6] (Homo sapiens), 6 nM. The GI50 in [7] was 302 nM; in assay [8], 49 nM; in assay [9], 930 nM; in [10], 705 nM; in [12] (Homo sapiens), above 10000 nM; in assay [13] (Homo sapiens, SW480, KRAS G12V) it was 42 nM. The GI50 in assay [14] (Homo sapiens) was above 10000 nM; in assay [15] (Homo sapiens), 8 nM; in assay [16] (Homo sapiens), 117 nM; in assay [17] (Homo sapiens, HT55, KRAS wt), 54 nM. Besides, the growth inhibition plateau in assay [7] (QGP-1, IPI-504 72 hours) was determined as 60%; in assay [8] (BON-1, IPI-504 72 hours), 60%. Also, the maximum growth inhibition in assay [9] (NCI-H720, IPI-504 72 hours) is 100%; in [10] (HC-45, IPI-504 72 hours), 100%. Also, the “constitutive phosphorylation of IR and IGF1R receptors” value in assay [11] is listed as “inhibited this constitutive phosphorylation”. Besides, the “time to complete degradation of EML4-ALK” value in [18] is given as at most 3 h.
